The values that follow come from patent US20260184691A1, “INHIBITORS AND DEGRADERS OF PIP4K PROTEIN” (Larkspur Biosciences, Inc., priority 2022, published 2026).

The test has as its target T1, endogenous PIP4K2C C-terminally tagged with HiBiT peptide in MOLT-4 cells (Homo sapiens, UniProt Q8TBX8).
T1 construct: to C-terminally tag endogenous PIP4K2C with HiBiT peptide; host or cells: MOLT-4 (CRISPR-Cas9 knock-in clone)
T1 sequence (Q8TBX8 1-421): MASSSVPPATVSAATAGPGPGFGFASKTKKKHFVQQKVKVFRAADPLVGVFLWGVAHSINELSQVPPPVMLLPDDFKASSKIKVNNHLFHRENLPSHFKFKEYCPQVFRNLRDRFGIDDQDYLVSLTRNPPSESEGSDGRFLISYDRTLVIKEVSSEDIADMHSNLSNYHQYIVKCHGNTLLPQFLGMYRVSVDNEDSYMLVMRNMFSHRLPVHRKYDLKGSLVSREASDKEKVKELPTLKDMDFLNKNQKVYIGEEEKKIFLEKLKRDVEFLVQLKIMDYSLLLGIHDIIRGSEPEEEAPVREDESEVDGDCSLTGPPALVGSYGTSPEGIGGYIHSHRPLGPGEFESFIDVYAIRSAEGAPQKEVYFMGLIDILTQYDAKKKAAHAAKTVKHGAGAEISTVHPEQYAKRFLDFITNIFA
Put plainly: HiBiT PIP4K2C degradation assay in MOLT-4 cells. The class given is cell-based. The note with it: 24 hours, 10-point dose response, top concentration 10 micromolar, read-out: HiBIT-degradation MOLT4 PIP4k2C 24 hours DC50. Put shortly: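 Cells bearing C-terminal HiBiT knock-in were exposed to a 10-point, 3-fold dilution series (top 10 micromolar, duplicate) for 24 h at 37C, 5% CO2. Remaining tagged protein read by lytic HiBiT luminescence; DC50 from Hill-equation fit.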
On the technique in general: The HiBiT peptide binds its large partner to form an active luciferase.
In the case of `CN1CCC(n2cc(-c3nc(Nc4cncc(N5CCC6(CCN(C(=O)CC7CCN(c8ccc(NC9CCC(=O)NC9=O)cc8)CC7)CC6)C5=O)c4)ncc3Cl)cn2)CC1` (centres unmarked) [Compound 193, 3-((4-(4-(2-(2-(5-((5-chloro-4-(1-(1-methylpiperidin-4-yl)-1H-pyrazol-4-yl)pyrimidin-2-yl)amino)pyridin-3-yl)-1-oxo-2,8-diazaspiro[4.5]decan-8-yl)-2-oxoethyl)piperidin-1-yl)phenyl)amino)piperidine-2,6-dione], the DC50 – broadly, the concentration giving 50% degradation – is < 500 nM.

In the case of `CN1CCC(n2cc(-c3nc(Nc4cncc(N5CCC6(CCN(C(=O)CN7CCC(c8ccc(NC9CCC(=O)NC9=O)cc8)CC7)CC6)C5=O)c4)ncc3Cl)cn2)CC1` (centres unmarked) [Compound 194, 3-((4-(1-(2-(2-(5-((5-chloro-4-(1-(1-methylpiperidin-4-yl)-1H-pyrazol-4-yl)pyrimidin-2-yl)amino)pyridin-3-yl)-1-oxo-2,8-diazaspiro[4.5]decan-8-yl)-2-oxoethyl)piperidin-4-yl)phenyl)amino)piperidine-2,6-dione], the DC50 was < 500 nM.

For the compound `O=C1CCC(N2Cc3cc(NCCCCC(=O)N4CCC5(CC4)CCN(c4cncc(Nc6ncc(Cl)c(-c7cccc(-c8ccccn8)c7)n6)c4)C5=O)ccc3C2=O)C(=O)N1` (centres unmarked) [Compound 195, 3-(5-((5-(2-(5-((5-chloro-4-(3-(pyridin-2-yl)phenyl)pyrimidin-2-yl)amino)pyridin-3-yl)-1-oxo-2,8-diazaspiro[4.5]decan-8-yl)-5-oxopentyl)amino)-1-oxoisoindolin-2-yl)piperidine-2,6-dione], the DC50 was < 500 nM.

Take `O=C1CCC(N2Cc3cc(C4CCN(C(=O)CN5CCC(C(=O)Nc6cncc(Nc7ncc(Cl)c(-c8cccc(C9CC9)c8)n7)c6)CC5)CC4)ccc3C2=O)C(=O)N1` (centres unmarked) [Compound 196, N-(5-((5-chloro-4-(3-cyclopropylphenyl)pyrimidin-2-yl)amino)pyridin-3-yl)-1-(2-(4-(2-(2,6-dioxopiperidin-3-yl)-1-oxoisoindolin-5-yl)piperidin-1-yl)-2-oxoethyl)piperidine-4-carboxamide]: the DC50 was < 500 nM.

`CC(=O)N1CCCC(n2cc(-c3nc(Nc4cncc(N5CCC6(CCN(C(=O)CN7CCC(c8ccc(NC9CCC(=O)NC9=O)cc8)CC7)CC6)C5=O)c4)ncc3Cl)cn2)C1` (centres unmarked) [Compound 197, 3-((4-(1-(2-(2-(5-((4-(1-(1-acetylpiperidin-3-yl)-1H-pyrazol-4-yl)-5-chloropyrimidin-2-yl)amino)pyridin-3-yl)-1-oxo-2,8-diazaspiro[4.5]decan-8-yl)-2-oxoethyl)piperidin-4-yl)phenyl)amino)piperidine-2,6-dione]: the DC50 is < 500 nM.

Turning to `O=C1CCC(N2Cc3cc(C4CCN(C(=O)CN5CCC6(CC5)CCN(c5cncc(Nc7ncc(Cl)c(-c8cccc(C9CC9)c8)n7)c5)C6=O)CC4)ccc3C2=O)C(=O)N1` (centres unmarked) [Compound 198, 3-(5-(1-(2-(2-(5-((5-chloro-4-(3-cyclopropylphenyl)pyrimidin-2-yl)amino)pyridin-3-yl)-1-oxo-2,8-diazaspiro[4.5]decan-8-yl)acetyl)piperidin-4-yl)-1-oxoisoindolin-2-yl)piperidine-2,6-dione], the 50% degradation concentration (DC50) is < 500 nM.

For `O=C1CCC(N2Cc3cc(OC4CCN(C(=O)CN5CCC6(CC5)CCN(c5cncc(Nc7ncc(Cl)c(-c8cccc(C9CC9)c8)n7)c5)C6=O)CC4)ccc3C2=O)C(=O)N1` (centres unmarked) [Compound 199, 3-(5-((1-(2-(2-(5-((5-chloro-4-(3-cyclopropylphenyl)pyrimidin-2-yl)amino)pyridin-3-yl)-1-oxo-2,8-diazaspiro[4.5]decan-8-yl)acetyl)piperidin-4-yl)oxy)-1-oxoisoindolin-2-yl)piperidine-2,6-dione], the DC50 is < 500 nM.

As for `O=C1CCC(Nc2ccc(C3CCN(C(=O)CN4CCC5(CC4)CCN(c4cncc(Nc6ncc(Cl)c(-c7cccc(C8CC8)c7)n6)c4)C5=O)CC3)cc2)C(=O)N1` (centres unmarked) [Compound 200, 3-((4-(1-(2-(2-(5-((5-chloro-4-(3-cyclopropylphenyl)pyrimidin-2-yl)amino)pyridin-3-yl)-1-oxo-2,8-diazaspiro[4.5]decan-8-yl)acetyl)piperidin-4-yl)phenyl)amino)piperidine-2,6-dione], the DC50 is < 500 nM.

With `O=C1CCC(N2Cc3cc(OC4CCN(C(=O)CN5CCC(C(=O)Nc6cncc(Nc7ncc(Cl)c(-c8cccc(C9CC9)c8)n7)c6)CC5)CC4)ccc3C2=O)C(=O)N1` (centres unmarked) [Compound 201, N-(5-((5-chloro-4-(3-cyclopropylphenyl)pyrimidin-2-yl)amino)pyridin-3-yl)-1-(2-(4-((2-(2,6-dioxopiperidin-3-yl)-1-oxoisoindolin-5-yl)oxy)piperidin-1-yl)-2-oxoethyl)piperidine-4-carboxamide], the DC50 was < 500 nM.

Consider `O=C1CCC(Nc2ccc(C3CCN(C(=O)CN4CCC(C(=O)Nc5cncc(Nc6ncc(Cl)c(-c7cccc(C8CC8)c7)n6)c5)CC4)CC3)cc2)C(=O)N1` (centres unmarked) [Compound 202, N-(5-((5-chloro-4-(3-cyclopropylphenyl)pyrimidin-2-yl)amino)pyridin-3-yl)-1-(2-(4-(4-((2,6-dioxopiperidin-3-yl)amino)phenyl)piperidin-1-yl)-2-oxoethyl)piperidine-4-carboxamide], for which the 50% degradation concentration (DC50) is < 500 nM.

`O=C1CCC(N2Cc3cc(C4CCN(CC(=O)N5CCC(C(=O)Nc6cncc(Nc7ncc(Cl)c(-c8cccc(C9CC9)c8)n7)c6)CC5)CC4)ccc3C2=O)C(=O)N1` (centres unmarked) [Compound 203, N-(5-((5-chloro-4-(3-cyclopropylphenyl)pyrimidin-2-yl)amino)pyridin-3-yl)-1-(2-(4-(2-(2,6-dioxopiperidin-3-yl)-1-oxoisoindolin-5-yl)piperidin-1-yl)acetyl)piperidine-4-carboxamide]: the DC50 is < 500 nM.

For the compound `Cn1c(=O)n(C2CCC(=O)NC2=O)c2ccc(C3CCN(C(=O)CN4CCC(C(=O)Nc5cncc(Nc6ncc(Cl)c(-c7cccc(C8CC8)c7)n6)c5)CC4)CC3)cc21` (centres unmarked) [Compound 204, N-(5-((5-chloro-4-(3-cyclopropylphenyl)pyrimidin-2-yl)amino)pyridin-3-yl)-1-(2-(4-(1-(2,6-dioxopiperidin-3-yl)-3-methyl-2-oxo-2,3-dihydro-1H-benzo[d]imidazol-5-yl)piperidin-1-yl)-2-oxoethyl)piperidine-4-carboxamide], the DC50 is < 500 nM.

On to `O=C1CCC(N2Cc3cc(OC4CCN(CC(=O)N5CCC6(CC5)CCN(c5cncc(Nc7ncc(Cl)c(-c8cccc(C9CC9)c8)n7)c5)C6=O)CC4)ccc3C2=O)C(=O)N1` (centres unmarked) [Compound 205, 3-[5-[[1-[2-[2-[5-[[5-chloro-4-(3-cyclopropylphenyl)pyrimidin-2-yl]amino]-3-pyridyl]-1-oxo-2,8-diazaspiro[4.5]decan-8-yl]-2-oxo-ethyl]-4-piperidyl]oxy]-1-oxo-isoindolin-2-yl]piperidine-2,6-dione], for which the DC50 is < 500 nM.

As to `O=C1CCC(Nc2ccc(C3CCN(CC(=O)N4CCC5(CC4)CCN(c4cncc(Nc6ncc(Cl)c(-c7cccc(C8CC8)c7)n6)c4)C5=O)CC3)cc2)C(=O)N1` (centres unmarked) [Compound 206, 3-[4-[1-[2-[2-[5-[[5-chloro-4-(3-cyclopropylphenyl)pyrimidin-2-yl]amino]-3-pyridyl]-1-oxo-2,8-diazaspiro[4.5]decan-8-yl]-2-oxo-ethyl]-4-piperidyl]anilino]piperidine-2,6-dione], the DC50 is < 500 nM.

In the case of `O=C1CCC(N2Cc3cc(C4CCN(CC(=O)N5CCC6(CC5)CCN(c5cncc(Nc7ncc(Cl)c(-c8cccc(C9CC9)c8)n7)c5)C6=O)CC4)ccc3C2=O)C(=O)N1` (centres unmarked) [Compound 207, 3-(5-(1-(2-(2-(5-((5-chloro-4-(3-cyclopropylphenyl)pyrimidin-2-yl)amino)pyridin-3-yl)-1-oxo-2,8-diazaspiro[4.5]decan-8-yl)-2-oxoethyl)piperidin-4-yl)-1-oxoisoindolin-2-yl)piperidine-2,6-dione], the DC50 is < 500 nM.

Consider `Cn1c(=O)n(C2CCC(=O)NC2=O)c2ccc(C3CCN(C(=O)CN4CCC5(CC4)CCN(c4cncc(Nc6ncc(Cl)c(-c7cccc(C8CC8)c7)n6)c4)C5=O)CC3)cc21` (centres unmarked) [Compound 208, 3-[5-[1-[2-[2-[5-[[5-chloro-4-(3-cyclopropylphenyl)pyrimidin-2-yl]amino]-3-pyridyl]-1-oxo-2,8-diazaspiro[4.5]decan-8-yl]acetyl]-4-piperidyl]-3-methyl-2-oxo-benzimidazol-1-yl]piperidine-2,6-dione], for which the DC50 was < 500 nM.

Take `Cn1c(=O)n(C2CCC(=O)NC2=O)c2ccc(C3CCN(CC(=O)N4CCC5(CC4)CCN(c4cncc(Nc6ncc(Cl)c(-c7cccc(C8CC8)c7)n6)c4)C5=O)CC3)cc21` (centres unmarked) [Compound 209, 3-(5-(1-(2-(2-(5-((5-chloro-4-(3-cyclopropylphenyl)pyrimidin-2-yl)amino)pyridin-3-yl)-1-oxo-2,8-diazaspiro[4.5]decan-8-yl)-2-oxoethyl)piperidin-4-yl)-3-methyl-2-oxo-2,3-dihydro-1H-benzo[d]imidazol-1-yl)piperidine-2,6-dione]: the DC50 was < 500 nM.
